Experimental data from patent US11008282B2, “Bicyclic-compounds for use as a medicament, in particular for treatment of parkinson's disease” (CAPROTEC BIOANALYTICS GMBH, priority 2015, dated 2021).
“Also recorded” adds a separate entry of the source. Read-outs that look alike come from different tables or passages of the source.

What was measured:
COMT [1] = target: T1, COMT (Homo sapiens, UniProt P21964); test: COMT activity microplate assay (aesculetin methylation, fluorometric); assay type: biochemical
T1 construct: His; host or cells: E. coli BL21
T1 sequence (P21964 1-221 isoform P21964-2): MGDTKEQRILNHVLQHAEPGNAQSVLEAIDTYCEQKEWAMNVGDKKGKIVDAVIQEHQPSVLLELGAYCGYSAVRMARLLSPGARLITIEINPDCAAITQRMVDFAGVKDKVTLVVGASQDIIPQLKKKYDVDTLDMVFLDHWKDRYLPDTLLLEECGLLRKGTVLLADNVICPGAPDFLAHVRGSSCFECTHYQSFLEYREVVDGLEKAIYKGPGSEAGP

ADI1 = target: T2, ADI1 (Homo sapiens, UniProt Q9BV57); test: CCMS differential competition, HepG2 lysate, active capture compound CPT-224; assay type: binding; conditions: CPT-224 1 μM; for Fc: fold change assay vs competition, 50 μM competitor; for MS/MS: with 50 μM competitor, HepG2 lysate
T2 construct: performing CCMS experiments in the hepatoma-derived cell line HepG2; host or cells: HepG2 lysate
T2 sequence (Q9BV57 1-179): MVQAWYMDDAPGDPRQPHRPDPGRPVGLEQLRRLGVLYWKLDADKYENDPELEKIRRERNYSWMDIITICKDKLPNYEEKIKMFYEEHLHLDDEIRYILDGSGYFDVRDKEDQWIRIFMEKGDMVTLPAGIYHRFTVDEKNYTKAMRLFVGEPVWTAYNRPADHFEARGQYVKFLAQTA

CCBL2 = target: T3, CCBL2 (Homo sapiens, UniProt Q6YP21); test: as above; assay type: binding; conditions: CPT-224 1 μM; for Fc: fold change assay vs competition, 50 μM competitor; for MS/MS: with 50 μM competitor, HepG2 lysate
T3 construct: performing CCMS experiments in the hepatoma-derived cell line HepG2; host or cells: HepG2 lysate
T3 sequence (Q6YP21 whole entry): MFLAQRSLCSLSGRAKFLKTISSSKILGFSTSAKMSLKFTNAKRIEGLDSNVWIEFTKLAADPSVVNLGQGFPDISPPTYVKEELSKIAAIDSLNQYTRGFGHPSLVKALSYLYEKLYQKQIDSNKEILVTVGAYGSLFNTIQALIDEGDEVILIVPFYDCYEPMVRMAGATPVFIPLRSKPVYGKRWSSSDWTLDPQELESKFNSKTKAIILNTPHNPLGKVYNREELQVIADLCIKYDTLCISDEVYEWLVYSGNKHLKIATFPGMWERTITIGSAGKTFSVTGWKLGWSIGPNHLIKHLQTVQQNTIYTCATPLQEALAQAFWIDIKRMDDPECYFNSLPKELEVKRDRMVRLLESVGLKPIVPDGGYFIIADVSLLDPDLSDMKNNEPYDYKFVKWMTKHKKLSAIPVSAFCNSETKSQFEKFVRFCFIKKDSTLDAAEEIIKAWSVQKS

GCDH = target: T4, GCDH (Homo sapiens, UniProt Q92947); test: as above; assay type: binding; conditions: CPT-224 1 μM; for Fc: fold change assay vs competition, 50 μM competitor; for MS/MS: with 50 μM competitor, HepG2 lysate
T4 construct: performing CCMS experiments in the hepatoma-derived cell line HepG2; host or cells: HepG2 lysate
T4 sequence (Q92947 45-438): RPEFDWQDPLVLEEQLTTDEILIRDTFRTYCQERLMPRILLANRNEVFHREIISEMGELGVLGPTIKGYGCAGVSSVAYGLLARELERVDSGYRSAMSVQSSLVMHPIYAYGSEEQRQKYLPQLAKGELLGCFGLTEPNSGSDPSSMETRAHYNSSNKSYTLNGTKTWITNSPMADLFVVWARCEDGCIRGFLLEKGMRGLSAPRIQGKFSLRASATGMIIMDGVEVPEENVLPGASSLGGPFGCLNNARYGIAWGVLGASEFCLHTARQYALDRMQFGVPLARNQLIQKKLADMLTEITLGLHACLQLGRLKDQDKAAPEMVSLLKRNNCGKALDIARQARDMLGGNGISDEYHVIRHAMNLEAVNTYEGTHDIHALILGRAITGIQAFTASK

COMT [2] = target: T5, COMT (Homo sapiens, UniProt P21964); test: CCMS differential competition and dose-dependent capturing, HepG2 lysate; assay type: binding; conditions: for Fc: fold change assay vs competition, 50 μM competitor; for Fc / MS/MS: CPT-224 1 μM; for MS/MS: with 50 μM competitor, HepG2 lysate; for competition of COMT capture, dose-dependent capturing: CPT-224 5 μM to 40 nM
T5 construct: performing CCMS experiments in the hepatoma-derived cell line HepG2; host or cells: HepG2 lysate
T5 sequence (P21964 1-271): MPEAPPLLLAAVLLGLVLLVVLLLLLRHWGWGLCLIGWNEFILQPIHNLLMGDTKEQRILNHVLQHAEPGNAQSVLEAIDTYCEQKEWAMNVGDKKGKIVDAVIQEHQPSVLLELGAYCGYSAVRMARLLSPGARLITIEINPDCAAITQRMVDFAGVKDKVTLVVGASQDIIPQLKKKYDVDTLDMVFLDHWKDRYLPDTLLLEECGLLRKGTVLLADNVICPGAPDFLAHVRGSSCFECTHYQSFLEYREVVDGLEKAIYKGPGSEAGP

AKR1B10 = target: T6, AKR1B10 (Homo sapiens, UniProt O60218); test: CCMS differential competition, HepG2 lysate, inactive capture compound CPT-220; assay type: binding; conditions: CPT-220 1 μM; for Fc: fold change assay vs competition, 50 μM competitor; for MS/MS: with 50 μM competitor, HepG2 lysate
T6 construct: performing CCMS experiments in the hepatoma-derived cell line HepG2; host or cells: HepG2 lysate
T6 sequence (O60218 whole entry): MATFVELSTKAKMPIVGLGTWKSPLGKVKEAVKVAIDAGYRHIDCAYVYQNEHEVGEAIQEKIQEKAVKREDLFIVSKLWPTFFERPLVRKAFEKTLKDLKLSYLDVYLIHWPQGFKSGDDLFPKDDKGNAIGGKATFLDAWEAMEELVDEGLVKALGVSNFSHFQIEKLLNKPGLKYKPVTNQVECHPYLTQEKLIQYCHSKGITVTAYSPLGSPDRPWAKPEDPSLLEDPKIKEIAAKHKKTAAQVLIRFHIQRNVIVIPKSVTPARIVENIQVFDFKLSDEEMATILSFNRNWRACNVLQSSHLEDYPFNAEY

NIPSNAP3A = target: T7, NIPSNAP3A (Homo sapiens, UniProt Q9UFN0); test: as above; assay type: binding; conditions: CPT-220 1 μM; for Fc: fold change assay vs competition, 50 μM competitor; for MS/MS: with 50 μM competitor, HepG2 lysate
T7 construct: performing CCMS experiments in the hepatoma-derived cell line HepG2; host or cells: HepG2 lysate
T7 sequence (Q9UFN0 1-247): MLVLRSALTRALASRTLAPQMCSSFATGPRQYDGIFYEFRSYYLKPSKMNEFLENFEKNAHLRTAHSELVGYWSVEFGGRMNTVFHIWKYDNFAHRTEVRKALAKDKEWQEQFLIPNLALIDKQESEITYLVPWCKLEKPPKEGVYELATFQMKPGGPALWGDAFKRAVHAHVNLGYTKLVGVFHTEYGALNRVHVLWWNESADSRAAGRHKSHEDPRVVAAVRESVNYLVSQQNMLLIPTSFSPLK

PDXK = target: T8, PDXK (Homo sapiens, UniProt O00764); test: as above; assay type: binding; conditions: CPT-220 1 μM; for Fc: fold change assay vs competition, 50 μM competitor; for MS/MS: with 50 μM competitor, HepG2 lysate
T8 construct: performing CCMS experiments in the hepatoma-derived cell line HepG2; host or cells: HepG2 lysate
T8 sequence (O00764 1-312): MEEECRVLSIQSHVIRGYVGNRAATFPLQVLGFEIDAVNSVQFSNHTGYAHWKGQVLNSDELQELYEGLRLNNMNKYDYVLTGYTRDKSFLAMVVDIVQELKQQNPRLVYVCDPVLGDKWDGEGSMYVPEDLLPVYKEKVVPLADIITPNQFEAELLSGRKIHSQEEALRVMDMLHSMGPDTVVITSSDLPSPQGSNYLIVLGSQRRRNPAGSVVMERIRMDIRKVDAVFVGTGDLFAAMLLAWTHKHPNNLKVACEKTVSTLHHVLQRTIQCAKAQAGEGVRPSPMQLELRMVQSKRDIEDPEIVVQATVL

COMT [3] = target: T1, COMT; test: Capture assay with CPT-224 followed by anti-COMT / streptavidin Western Blot; assay type: binding; conditions: for competition of COMT capturing (anti-COMT Western Blot): active capture compound, competitor; for competition of crosslinking of COMT with CPT-224 (anti-Streptavidin Western Blot): recombinant COMT
HepG2 cells [4] = test: Mitochondrial toxicity assessment (Glu/Gal), ATPlite / Mitochondrial ToxGlo assay; assay type: cell-based, human; conditions: for mitochondrial cytotoxicity: HepG2 cells (FIG. 7); for IC50 in galactose media compared to glucose media: ATP content, HepG2 cells
HepG2 cells [5] = conditions: human
HIBCH [6] = target: T9, HIBCH (Homo sapiens, UniProt Q6NVY1); test: Capture assay with CPT-224 followed by anti-HIBCH / streptavidin Western Blot; assay type: binding; set-up: made in house; host or cells: E. coli BL21; conditions: for competition of HIBCH capturing (anti-HIBCH Western Blot): CPT-224, competitor; for competition of crosslinking of HIBCH with CPT-224 (anti-Streptavidin Western Blot): recombinant HIBCH
T9 sequence (Q6NVY1 33-386): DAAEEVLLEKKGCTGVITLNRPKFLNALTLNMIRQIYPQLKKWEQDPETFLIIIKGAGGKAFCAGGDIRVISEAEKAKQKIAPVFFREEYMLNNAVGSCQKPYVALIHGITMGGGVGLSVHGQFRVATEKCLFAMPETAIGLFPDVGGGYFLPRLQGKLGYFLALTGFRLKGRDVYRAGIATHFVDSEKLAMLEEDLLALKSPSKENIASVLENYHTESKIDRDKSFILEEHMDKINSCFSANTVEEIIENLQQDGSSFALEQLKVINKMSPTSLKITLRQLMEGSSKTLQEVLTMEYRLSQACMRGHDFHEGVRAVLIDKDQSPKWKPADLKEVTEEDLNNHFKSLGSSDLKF

HIBCH [7] = target: T9, HIBCH; test: dCCMS and dose-dependent capturing, HepG2 lysate; assay type: binding; set-up: performing CCMS experiments in the hepatoma-derived cell line HepG2; host or cells: HepG2 lysate; conditions: for competition of HIBCH capture (dCCMS): CPT-224 1 μM, competitor 50 μM, HepG2 lysate; for binding to HIBCH: dCCMS (FIG. 5, FIG. 6)
α-synuclein monomers = α-synuclein monomers (Homo sapiens, UniProt P37840); conditions: cited from earlier work
Aβ42 protofibrils = Aβ42 protofibrils (Homo sapiens, UniProt P05067); conditions: cited from earlier work
Sequence of Aβ42 protofibrils (P05067 672-713 limits assumed): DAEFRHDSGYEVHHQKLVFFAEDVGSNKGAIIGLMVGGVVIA

[8] = target: enoyl-acyl carrier protein reductase (InhA) (Mycobacterium tuberculosis, UniProt P9WGR1); conditions: cited from earlier work
Sequence of enoyl-acyl carrier protein reductase (InhA) (P9WGR1 whole entry, looked up): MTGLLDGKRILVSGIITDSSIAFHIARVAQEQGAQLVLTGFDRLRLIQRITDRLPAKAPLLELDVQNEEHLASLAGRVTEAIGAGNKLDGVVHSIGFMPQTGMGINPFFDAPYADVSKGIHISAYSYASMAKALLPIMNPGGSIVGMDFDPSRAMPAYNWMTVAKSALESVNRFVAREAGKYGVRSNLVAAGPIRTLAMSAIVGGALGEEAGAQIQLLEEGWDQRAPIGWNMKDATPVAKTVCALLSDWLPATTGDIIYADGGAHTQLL

[9] = in vivo; cited from earlier work

Structure (SMILES)	IC50 (COMT [1])	Fc (ADI1)	MS/MS (ADI1)	Fc (CCBL2)	MS/MS (CCBL2)	Fc (GCDH)	MS/MS (GCDH)	Fc (COMT [2])	MS/MS (COMT [2])	Fc (AKR1B10)	MS/MS (AKR1B10)	Fc (NIPSNAP3A)	MS/MS (NIPSNAP3A)	Fc (PDXK)	mitochondrial cytotoxicity (HepG2 cells [4])	mitochondrial membrane potential (HepG2 cells [5]; 50 μM)	mitochondrial membrane potential (HepG2 cells [5]; 100 μM)	competition of crosslinking of HIBCH with CPT-224 (anti-Streptavidin Western Blot) (HIBCH [6])	competition of HIBCH capture (dCCMS) (HIBCH [7])	IC50 in galactose media compared to glucose media (HepG2 cells [4])	also measured
CCN1C(=O)S/C(=C\c2cc(O)c(O)c([N+](=O)[O-])c2)C1=O [CPT-212]	179 nM	4.29	0.3	3.40	2	6.34	2.3	10.90	5	3.1	0	3	0.025	24.9	significantly higher than that of entacapone and CPT-401 (A1)	20-30 % of untreated HepG2 cells	0-5 % of the control	competed	specifically competed	–	MS/MS (PDXK): 3.75; competition of COMT capturing (anti-COMT Western Blot) (COMT [3]): signals were abolished; competition of crosslinking of COMT with CPT-224 (anti-Streptavidin Western Blot) (COMT [3]): competed; competition of HIBCH capturing (anti-HIBCH Western Blot) (HIBCH [6]): capturing was abolished; binding to HIBCH (HIBCH [7]): identified to bind
Cc1ccc(C(=O)c2cc(O)c(O)c([N+](=O)[O-])c2)cc1 [tolcapone, reference compound]	–	–	–	–	–	–	–	–	–	–	–	–	–	–	mitochondrial toxicant; also recorded: significantly higher than that of entacapone and CPT-401 (A1)	20-30 % of untreated HepG2 cells	0-5 % of the control	competed	specifically identified when tolcapone was used as competitor	> 4 fold	competition of COMT capture, dose-dependent capturing (COMT [2]): complete competition; inhibition of aggregation of α-synuclein monomers (α-synuclein monomers): inhibit aggregation of α-synuclein monomers; inhibition of aggregation of Aβ42 protofibrils to mature amyloid fibrils (Aβ42 protofibrils): inhibit the aggregation of Aβ42 protofibrils to mature amyloid fibrils; binding and inhibition of InhA [8]: bind and inhibit; toxicity [9]: severe hepatotoxicity in several cases; competition of HIBCH capturing (anti-HIBCH Western Blot) (HIBCH [6]): capturing was abolished; competition of HIBCH capture, dose-dependent capturing (HIBCH [7]; CPT-224 5 μM to 40 nM): competed only with tolcapone; binding to HIBCH (HIBCH [7]): identified to bind
CCN(CC)C(=O)/C(C#N)=C/c1cc(O)c(O)c([N+](=O)[O-])c1 [entacapone, reference compound]	–	–	–	–	–	–	–	–	–	–	–	–	–	–	–	more than 50 % of untreated HepG2 cells	40-50 % of the control	–	–	a much smaller effect	toxicity [9]: more favorable toxicity profile
CCN(CC)C(=O)c1cc2cc(O)c(O)c([N+](=O)[O-])c2cc1C(=O)N(CC)CC [CPT-401, N2,N2,N3,N3-tetraethyl-6,7-dihydroxy-5-nitro-naphthalene-2,3-dicarboxamide]	54 nM	3.67	0.3	3.05	2.6	5.90	2.6	34.2	3	4.7	0.5	7.5	0	16	low mitochondrial cytotoxicity	more than 50 % of untreated HepG2 cells	40-50 % of the control	no competition	no competition was observed	much less than for CPT-212 (B1)	competition of COMT capture, dose-dependent capturing (COMT [2]): complete competition; MS/MS (PDXK): 0; competition of COMT capturing (anti-COMT Western Blot) (COMT [3]): signals were abolished; competition of crosslinking of COMT with CPT-224 (anti-Streptavidin Western Blot) (COMT [3]): competed
